This passage reports melting point results from patent publication US20100190778A1, “3,4-DIHYDROBENZO[1,2,3]THIADIAZINE-1,1-DIOXIDE DERIVATIVES, PROCESS FOR PREPARATION THEREOF, MEDICAMENTS CONTAINING SAID DERIVATIVES AND THEIR USE” (EGIS GYOGYSZERGYAR NYILVANOSAN MUKODO RESZVENTARSASAG, priority 2006, published 2010).

The structures appear in SMILES notation.

For the compound `CCC1NNS(=O)(=O)c2cc(Cl)ccc21` (stereo not drawn) [Example 2, 4-Ethyl-7-chloro-3,4-dihydrobenzo[1,2,3]thiadiazine-1,1-dioxide], the melting point was in the range of 128 to 130 °C.

`CCC1NNS(=O)(=O)c2c1ccc(Cl)c2Cl` (stereo not drawn) [Example 4, 7,8-Dichloro-4-ethyl-3,4-dihydrobenzo[1,2,3]thiadiazine-1,1-dioxide] came in with a melting point of 222 to 224 °C.

`Cc1cc2c(c(Cl)c1Cl)S(=O)(=O)NNC2C` (stereo not drawn) [Example 6, 7,8-Dichloro-4,6-dimethyl-3,4-dihydrobenzo[1,2,3]thiadiazine-1,1-dioxide]: the melting point lay in the range of 253 to 254 °C.

In turn, `CC1NNS(=O)(=O)c2c(Cl)cccc21` (stereo not drawn) [Example 7, 8-chloro-4-methyl-3,4-dihydrobenzo[1,2,3]thiadiazine-1,1-dioxide] returned a melting point of 202 to 203 °C.

For the compound `CC1NNS(=O)(=O)c2ccccc21` (stereo not drawn) [Example 8, 4-Methyl-3,4-dihydrobenzo[1,2,3]thiadiazine-1,1-dioxide], the melting point lay in the range of 150 to 152 °C.

For the compound `COc1ccc2c(c1Cl)S(=O)(=O)NNC2C` (stereo not drawn) [Example 9, 8-chloro-4-methyl-7-methoxy-3,4-dihydrobenzo[1,2,3]thiadiazine-1,1-dioxide], the melting point fell in the range of 231 to 233 °C.

For the compound `COc1ccc2c(c1OC)S(=O)(=O)NNC2C` (stereo not drawn) [Example 10, 7,8-Dimethoxy-4-methyl-3,4-dihydrobenzo[1,2,3]thiadiazine-1,1-dioxide], the melting point is 211 to 213 °C.

With `COc1cccc2c1S(=O)(=O)NNC2C` (stereo not drawn) [Example 11, 4-Methyl-8-methoxy-3,4-dihydrobenzo[1,2,3]thiadiazine-1,1-dioxide], the melting point was in the range of 231 to 233 °C.

For the compound `COc1ccc2c(c1)CNNS2(=O)=O` [Example 13, 6-Methoxy-3,4-dihydrobenzo[1,2,3]thiadiazine-1,1-dioxide], the melting point lay in the range of 181 to 182 °C.

With `O=S1(=O)NNCc2ccccc21` [Example 14, 3,4-Dihydrobenzo[1,2,3]thiadiazine-1,1-dioxide], the melting point was 134 to 136 °C.

`COc1ccc2c(c1Cl)S(=O)(=O)NNC2` [Example 15, 8-chloro-7-methoxy-3,4-dihydrobenzo[1,2,3]thiadiazine-1,1-dioxide] showed a melting point of 209 to 210 °C.

Consider `CCC1NN(C)S(=O)(=O)c2c1ccc(Cl)c2Cl` (stereo not drawn) [Example 17, 7,8-Dichloro-4-ethyl-2-methyl-3,4-dihydrobenzo[1,2,3]thiadiazine-1,1-dioxide], for which the melting point fell in the range of 139 to 141 °C.

For the compound `Cc1cc(Cl)c(Cl)c2c1C(C)NN(C)S2(=O)=O` (stereo not drawn) [Example 18, 7,8-Dichloro-2,4,5-trimethyl-3,4-dihydrobenzo[1,2,3]thiadiazine-1,1-dioxide], the melting point was 101 to 102 °C.

Compound `COc1ccc2c(c1Cl)S(=O)(=O)N(C)NC2C` (stereo not drawn) [Example 19, 2,4-Dimethyl-8-chloro-7-methoxy-3,4-dihydrobenzo[1,2,3]thiadiazine-1,1-dioxide] returned a melting point of 141 to 143 °C.

Regarding `CCN1NC(C)c2ccc(Cl)c(Cl)c2S1(=O)=O` (stereo not drawn) [Example 21, 7,8-Dichloro-2-ethyl-4-methyl-3,4-dihydrobenzo[1,2,3]thiadiazine-1,1-dioxide], the melting point was in the range of 135 to 136 °C.

Take `CCC1NN(CC)S(=O)(=O)c2c1ccc(Cl)c2Cl` (stereo not drawn) [Example 22, 2,4-Diethyl-7,8-dichloro-3,4-dihydrobenzo[1,2,3]thiadiazine-1,1-dioxide]: the melting point lay within 118 to 120 °C.

In turn, `CC1NN(C)S(=O)(=O)c2c(Cl)cccc21` (stereo not drawn) [Example 23, 2,4-Dimethyl-8-chloro-3,4-dihydrobenzo[1,2,3]thiadiazine-1,1-dioxide] gave a melting point of 128 to 130 °C.

`CCN1NC(C)c2cccc(Cl)c2S1(=O)=O` (stereo not drawn) [Example 24, 2-Ethyl-8-chloro-4-methyl-3,4-dihydrobenzo[1,2,3]thiadiazine-1,1-dioxide] gave a melting point of 79 to 80 °C.

The compound `Cc1cc2c(c(Cl)c1Cl)S(=O)(=O)N(C)NC2C` (stereo not drawn) [Example 25, 7,8-Dichloro-2,4,6-trimethyl-3,4-dihydrobenzo[1,2,3]thiadiazine-1,1-dioxide] gave a melting point of 141 to 142 °C.

In the case of `CC1c2ccc(Cl)c(Cl)c2S(=O)(=O)NN1C` (stereo not drawn) [Example 26, 7,8-Dichloro-3,4-dimethyl-3,4-dihydrobenzo[1,2,3]thiadiazine-1,1-dioxide], the melting point was 194 to 195 °C.

In turn, `CCN1NS(=O)(=O)c2c(ccc(Cl)c2Cl)C1C` (stereo not drawn) [Example 27, 7,8-Dichloro-3-ethyl-4-methyl-3,4-dihydrobenzo[1,2,3]thiadiazine-1,1-dioxide] showed a melting point of 172 to 174 °C.

For `CCCN1NS(=O)(=O)c2c(ccc(Cl)c2Cl)C1C` (stereo not drawn) [Example 28, 7,8-Dichloro-4-methyl-3-propyl-3,4-dihydrobenzo[1,2,3]thiadiazine-1,1-dioxide], the melting point was 164 to 165 °C.

Regarding `CCC1c2ccc(Cl)cc2S(=O)(=O)NN1CC` (stereo not drawn) [Example 29, 3,4-Diethyl-7-chloro-3,4-dihydrobenzo[1,2,3]thiadiazine-1,1-dioxide], the melting point lay in the range of 109 to 111 °C.

Compound `CCC1c2ccc(Cl)cc2S(=O)(=O)NN1C(C)C` (stereo not drawn) [Example 30, 4-Ethyl-3-isopropyl-7-chloro-3,4-dihydrobenzo[1,2,3]thia diazine-1,1-dioxide] showed a melting point of 99 to 101 °C.

`Cc1cc(Cl)c(Cl)c2c1C(C)N(C)NS2(=O)=O` (stereo not drawn) [Example 31, 7,8-Dichloro-3,4,5-trimethyl-3,4-dihydrobenzo[1,2,3]thiadiazine-1,1-dioxide] gave a melting point of 236 to 238 °C.

Consider `CN1Cc2ccccc2S(=O)(=O)N1` [Example 32, 3-Methyl-3,4-dihydrobenzo[1,2,3]thiadiazine-1,1-dioxide], for which the melting point lay in the range of 176 to 178 °C.

Take `CCN1Cc2ccccc2S(=O)(=O)N1` [Example 33, 3-Ethyl-3,4-dihydrobenzo[1,2,3]thiadiazine-1,1-dioxide]: the melting point lay within 146 to 147 °C.

In turn, `COc1ccc2c(c1)CN(C)NS2(=O)=O` [Example 34, 3-Methyl-6-methoxy-3,4-dihydrobenzo[1,2,3]thiadiazine-1,1-dioxide] yielded a melting point of 186 to 187 °C.

With `CCN1Cc2cc(OC)ccc2S(=O)(=O)N1` [Example 35, 3-Ethyl-6-methoxy-3,4-dihydrobenzo[1,2,3]thiadiazine-1,1-dioxide], the melting point lay in the range of 180 to 181 °C.

For `CN1Cc2ccc(Cl)c(Cl)c2S(=O)(=O)N1` [Example 36, 7,8-Dichloro-3-methyl-3,4-dihydrobenzo[1,2,3]thiadiazine-1,1-dioxide], the melting point lay in the range of 189 to 190 °C.

For `CN1Cc2ccc(Cl)cc2S(=O)(=O)N1` [Example 37, 7-chloro-3-methyl-3,4-dihydrobenzo[1,2,3]thiadiazine-1,1-dioxide], the melting point is 188 to 189 °C.

The compound `Cc1cc(Cl)c(Cl)c2c1C(C)N(C(C)C)NS2(=O)=O` (stereo not drawn) [Example 38, 7,8-Dichloro-4,5-dimethyl-3-isopropyl-3,4-dihydrobenzo[1,2,3]thiadiazine-1,1-dioxide] came in with a melting point of 167 to 168 °C.

As for `COc1ccc2c(c1)CN(C)N(C)S2(=O)=O` [Example 39, 2,3-Dimethyl-6-methoxy-3,4-dihydrobenzo[1,2,3]thiadiazine-1,1-dioxide], the melting point was in the range of 142 to 143 °C.
